Reference: US7973055B2, “Crystalline forms of a biphenyl compound” (Theravance, Inc., priority 2006, dated 2011)

Molecular target: T1, hM2 receptor (CHO-K1 cells) (Homo sapiens, UniProt P08172)
T1 construct: expressed in transfected cells; host or cells: CHO-K1 cells
T1 sequence (P08172 1-466): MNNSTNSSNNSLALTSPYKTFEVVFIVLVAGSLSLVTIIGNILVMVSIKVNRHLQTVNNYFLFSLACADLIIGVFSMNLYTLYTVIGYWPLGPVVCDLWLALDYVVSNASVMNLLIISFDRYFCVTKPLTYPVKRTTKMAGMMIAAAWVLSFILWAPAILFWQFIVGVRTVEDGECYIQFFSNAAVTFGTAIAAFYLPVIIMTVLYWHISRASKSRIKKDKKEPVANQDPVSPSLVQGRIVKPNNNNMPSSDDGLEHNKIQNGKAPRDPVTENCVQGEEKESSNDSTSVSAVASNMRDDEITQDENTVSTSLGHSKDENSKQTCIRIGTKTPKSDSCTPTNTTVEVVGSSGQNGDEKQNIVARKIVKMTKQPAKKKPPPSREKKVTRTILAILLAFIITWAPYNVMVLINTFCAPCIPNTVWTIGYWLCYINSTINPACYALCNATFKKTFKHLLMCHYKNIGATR
Assay: Blockade of agonist-mediated inhibition of cAMP accumulation
Format: cell-based
Details: CHO-K1 cells expressing hM2; this or a similar assay; read-out: Ki for blockade of oxotremorine-inhibition of forskolin-mediated cAMP accumulation
Description: In this assay, the functional potency of a test compound was determined by measuring the ability of the test compound to block oxotremorine-inhibition of forskolin-mediated cAMP accumulation in CHO-K1 cells expressing the hM2 receptor. cAMP assays were performed in a radioimmunoassay format using the Flashplate Adenylyl Cyclase Activation Assay System with ^125I-cAMP (NEN SMP004B, PerkinElmer Life Sciences Inc., Boston, Mass.), according to the manufacturer's instructions.
Cells were rinsed once with dPBS and lifted with Trypsin-EDTA solution (0.05% trypsin/0.53 mM EDTA) as described in the Cell Culture and Membrane Preparation section above. […] The cell pellet was then re-suspended in 10 mL dPBS, and the cells were counted with a Coulter Z1 Dual Particle Counter (Beckman Coulter, Fullerton, Calif.). […]
To measure oxotremorine inhibition of AC activity, 25 μL forskolin (25 μM final concentration diluted in dPBS), 25 μL diluted oxotremorine, and 50 μL cells were added to agonist assay wells. […] Plates were sealed, incubated overnight at room temperature and counted the next morning on a PerkinElmer TopCount liquid scintillation counter (PerkinElmer Inc., Wellesley, Mass.). The amount of cAMP produced (pmol/well) was calculated based on the counts observed for the samples and cAMP standards, as described in the manufacturer's user manual. […]

Question: How did the Ki turn out when `CN(CCN1CCC(OC(=O)Nc2ccccc2-c2ccccc2)CC1)C(=O)c1cccc(C(=O)NCCNCc2ccc(O)cc2)c1` [compound of formula I, biphenyl-2-ylcarbamic acid 1-[2-({3-[2-(4-hydroxybenzylamino)ethylcarbamoyl]benzoyl}methylamino)ethyl]piperidin-4-yl ester] was run?
Answer: < 5 nM
